Test results: patent US20230144023A1, “USE OF BUTYLPHTHALIDE AND DERIVATIVE THEREOF” (CSPC NBP PHARMACEUTICAL CO., LTD, priority 2020, published 2023)
Read-outs that look alike come from different tables or passages of the source.

Tests used:
JIMT-1 = test: In vitro tumor cell proliferation, MTT (Example 5); type: cell-based; settings: Homo sapiens, 30 μM NBP alone, 72 h, read-out: Inhibition rate
Method: (§1) This experiment includes a monotherapy group of ab-PTX, a combined therapy group (ab-PTX/NBP), and an NBP group. Different drug concentration gradients were set for each group.
(§2) ab-PTX/NBP group: the final concentration of NBP was 30 μM, and the concentration gradient of ab-PTX was the same as that of the monotherapy group.
(§3) Monotherapy group of NBP: NBP was 2× serially diluted from an initial concentration of 480 μM to 8 concentrations: 480, 240, 120, 60, 30, 15, 7.5, and 3.75 μM, respectively.
(§4) The action time of the drug was 72 h.
(§5) 24 h after adherence, 100 μL of the culture solution containing different concentration gradients of ab-PTX was added to each well of the monotherapy group of ab-PTX; 100 μL of the culture solution containing different concentration gradients of ab-PTX and 30 μM NBP was added to each well of the combined therapy group of ab-PTX/NBP; 100 μL of the culture solution containing different concentration gradients of NBP was added to each well of the monotherapy group of NBP; 3 repeated wells were provided for each concentration of each drug, and the blank wells (only culture medium was present) and the normal wells (drug concentration was 0) were provided.
(§6) The experiment was repeated three times, and the IC50 value was expressed as the mean±SD of the results of the 3 experiments.

SK-OV-3 = test: In vitro tumor cell proliferation, MTT (Example 5); type: cell-based; settings: Homo sapiens, 30 μM NBP alone, 72 h, read-out: Inhibition rate
Method: as §1, §2, §3, §4, §5, §6

MDA-MB-231 = test: In vitro tumor cell proliferation, MTT (Example 5); type: cell-based; settings: Homo sapiens, 30 μM NBP alone, 72 h, read-out: Inhibition rate
Method: as §1, §2, §3, §4, §5, §6

A375 = test: In vitro tumor cell proliferation, MTT (Example 5); type: cell-based; settings: Homo sapiens, A-375, 30 μM NBP alone, 72 h, read-out: Inhibition rate
Method: as §1, §2, §3, §4, §5, §6

HT29 = test: In vitro tumor cell proliferation, MTT (Example 5); type: cell-based; settings: Homo sapiens, HT-29, 30 μM NBP alone, 72 h, read-out: Inhibition rate
Method: as §1, §2, §3, §4, §5, §6

A549 = test: In vitro tumor cell proliferation, MTT (Example 5); type: cell-based; settings: Homo sapiens, 30 μM NBP alone, 72 h, read-out: Inhibition rate
Method: as §1, §2, §3, §4, §5, §6

[1] = system: paclitaxel (albumin bound) chemotherapy-induced peripheral neuropathy; test: Paclitaxel (albumin bound) chemotherapy-induced peripheral neuropathy in rats, butylphthalide intraperitoneal injection (Example 1); type: in vivo, SD (Sprague Dawley) rats; settings: NBP 1.5, 5 and 15 mg/kg bid i.p., compared with the model group
Method: The normal group was administered with 0.9% normal saline (0.9% INJ NS) at the same frequency. The animal grouping, the administration method, and the doses are detailed in Table 3. Based on the thermal pain threshold baselines and the body weights of the rats, the rats with the baseline values ranging from 3 to 6 s were selected, and were equally grouped in accordance with the above Table 3. […] (2) Thermal pain threshold: IITC Life Science Electronic Von Frey Anesthesio meter was used and the intensity of the light source was adjusted to obtain a baseline of thermal pain threshold of about 3-6 s. […] The rats were placed in a plastic compartment on a glass plate, to make the planta centers of the rats be exposed to the light source.

MM.1S xenograft tumor = test: Influence of NBP on in vivo anti-tumor efficacy of Bortezomib, MM.1S xenograft (Example 8); parameters: species or system Nu/Nu mice
Method: After in vitro resuscitation and passage of MM.1S cells to a sufficient amount, the cells were counted by a microscope, and diluted with a serum-free medium to adjust the cell count to about 1×10^8 cells/mL. The cell suspension was kept in an ice-water bath. The MM.1S cell suspension was extracted by a sterile syringe and inoculated into the subcutaneous tissue of the forelimb axilla of the Nu/Nu mice. […] Monotherapy group of Palbociclib: intragastric administration at 70 mg/kg, qd (the administration was commenced on day 0); […] The solvent group was given the solvent at the same frequency and with the same administration method as Bortezomib and NBP. The administration period was 16 days, and the administration volume was 10 mL/kg. […] Animals were weighed at set time once per day after the commencement of administration. After animals were grouped, the long diameter and the short diameter of the tumor were measured twice every week. […] V=1⁄2×A×B^2 […] (4) Tumor growth inhibition rate: Note: V: tumor volume; A: tumor length; B: tumor width; RTV: relative tumor volume; TVnd: tumor volume on day n; TV0d: tumor volume on day 0; […]: mean relative tumor volume on day n; TVXn: mean tumor volume of the therapy group on day n; TVX0: mean tumor volume of the therapy group on day 0; TVMn: mean tumor volume of the solvent group on day n; and TVM0: mean tumor volume of the solvent group on day 0 At the end of the experiment, after the animals were euthanized by CO2 asphyxiation, the tumors were excised and weighed.

MM.1S = test: In vitro tumor cell proliferation, MTT (Example 7); settings: Homo sapiens, MM1.S, 72 h
Method: (§7) This experiment includes a monotherapy group of Bortezomib, a combined therapy group (Bortezomib/NBP), and a monotherapy group of NBP. Different drug concentration gradients were set for each group.
(§8) Monotherapy group of Bortezomib: (1) MM.1S, Jeko-1, and HT29 cells: Bortezomib was 1.5× serially diluted from an initial concentration of 20 nM to 8 concentrations: 20, 13.33, 8.89, 5.93, 3.95, 2.63, 1.76, and 1.17 nM, respectively; (2) A549 cells: Bortezomib was 2×serially diluted from an initial concentration of 200 nM to 8 concentrations: 200, 100, 50, 25, 12.5, 6.25, 3.13, and 1.56 nM, respectively; and (3) DU145 cells: Bortezomib was 2× serially diluted from an initial concentration of 100 nM to 8 concentrations: 100, 50, 25, 12.5, 6.25, 3.13, 1.56, and 0.78 nM, respectively.
(§9) A certain number of conventionally cultured cells in logarithmic growth phase were inoculated in a 96-well plate with 100 μL per well. […] For adherent cells HT29, A549, and DU145, the above drugs were added 24 h after adherence. 3 replicate wells were set for each concentration of each drug, and blank wells (only culture medium was present, and no tumor cells were inoculated) and normal wells (a culture medium inoculated with tumor cells, drug concentration was 0) were set. The drugs functioned for 72 h, then MTT working solution (5 mg/mL) was added at 20 μL per well; after functioning at 37° C. for 4 h, the supernatant was removed, 150 μL of DMSO (analytically pure) was added; the mixture was fully mixed using a microplate oscillator, the plate was wiped clean, and the optical density (OD) at 550 nm was measured using a microplate reader.
(§10) The cell growth inhibition rate was computed using the following equation:
(§11) Inhibition rate (%)=(OD valuenormal well−OD valueadministration well)/(OD valuenormal well−OD valueblank well)×100%
(§12) Based on the inhibition rate of each concentration, the median inhibitory concentration IC50 of the drug was computed using SPSS19.0.

Jeko-1 = test: In vitro tumor cell proliferation, MTT (Example 7); settings: Homo sapiens, JeKo-1, 72 h
Method: as §7, §8, §9, §10, §11, §12

[2] = PK of total paclitaxel in plasma, JIMT-1 tumor-bearing mice (Example 4); type: in vivo, Nu/Nu mice; settings: NBP 6, 20, 60 mg/kg bid gavage with ab-PTX 15 mg/kg i.v.
Method: Administration period: 28 days. Administration volume: 10 mL/kg.
The administration period was 28 days. The administration volume was 10 mL/kg.

[3] = day 14, Bor 0.5 mg/kg, Pal 70 mg/kg, NBP 60 mg/kg, alone or combined
[4] = day 14, Bor 0.5 mg/kg, Pal 70 mg/kg, NBP 60 mg/kg, alone or combined, mean, n=6
[5] = read-out: Inhibition rate, First dose
[6] = read-out: Inhibition rate, Mean ± SD
[7] = read-out: Inhibition rate, Second dose
[8] = read-out: Inhibition rate, Third dose

## CCCCC1OC(=O)c2ccccc21 (stereo not drawn) [NBP, 3-n-butylphthalide]
JIMT-1
  inhibition at 30 µM: 7.39 ± 13.2%
SK-OV-3
  inhibition at 30 µM: 12.4 ± 7.41%
MDA-MB-231
  inhibition at 30 µM: 3.43 ± 3.95%
A375
  inhibition at 30 µM: 10.9 ± 0.57%
HT29
  inhibition at 30 µM: 10.1 ± 7.94%
A549
  inhibition at 30 µM: 5.12 ± 7.36%
[1]; D4-16
  body weights of the rats: not significantly changed
[1]; D7-13, P<0.05 or P<0.01
  thermal pain threshold (increase in model rats): significantly decreased
MM.1S xenograft tumor; NBP/Bortezomib 60/0.5 mg/kg compared with monotherapy group of Bortezomib, end of experiment
  influence of NBP on the tumor inhibition efficacy of Bortezomib: did not have obvious negative influence
MM.1S xenograft tumor; NBP/Bortezomib/Palbociclib compared with Bortezomib/Palbociclib, end of experiment
  influence of NBP on the antitumor efficacy of combined therapy of Bortezomib/Palbociclib: did not have obvious negative influence
MM.1S xenograft tumor; between groups, P>0.05
  body weights of the mice: no significant difference
MM.1S xenograft tumor; day 14, Bor 0.5 mg/kg i.p. biw, Pal 70 mg/kg qd i.g., NBP 60 mg/kg bid gavage, alone or combined, mean, n=6
  Body weight: 24.9 g
MM.1S xenograft tumor; [3]
  T/C %: 73.8%
  TGI %: 25.8%
MM.1S xenograft tumor; [4]
  RTV: 7.2
  TV: 938.1 mm^3
MM.1S xenograft tumor; end of experiment, Bor 0.5 mg/kg, Pal 70 mg/kg, NBP 60 mg/kg, alone or combined
  Tumor weight inhibition rate: 36.9%
MM.1S xenograft tumor; end of experiment, Bor 0.5 mg/kg, Pal 70 mg/kg, NBP 60 mg/kg, alone or combined, mean, n=6, in g (unit assumed)
  Tumor weight: 1.040
MM.1S; [5]
  inhibition at 30 µM: 0.16%
MM.1S; [6]
  inhibition at 30 µM: 12.1 ± 11.1%
MM.1S; [7]
  inhibition at 30 µM: 14.1%
MM.1S; [8]
  inhibition at 30 µM: 22.1%
Jeko-1; [5]
  inhibition at 30 µM: -7.67%
Jeko-1; [6]
  inhibition at 30 µM: -11.5 ± 6.32%
Jeko-1; [7]
  inhibition at 30 µM: -18.8%
Jeko-1; [8]
  inhibition at 30 µM: -8.11%
[2]
  influence of combined butylphthalide on the pharmacokinetic behavior of paclitaxel in the plasma: did not affect
